Experimental data taken from ChEMBL document CHEMBL1201862, “PubChem BioAssay data set” (2004).
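Exposure lasted 48 hours, with cells grown in 96-well plates and compounds tested at five concentrations. The concentration for 50% growth inhibition is given as GI50.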 Active and inactive are the calls of the source. No stated cut-off is given here; in the data, active = GI50 up to about 1.1 µM and inactive = higher.

Key:
Assay in all cases: DTP human tumour cell line panel, 48 h
786-0 = test system: 786-0
A549 = test system: A549
ACHN = test system: ACHN
BT-549 = test system: BT-549
CAKI-1 = test system: CAKI-1
COLO 205 = test system: COLO 205
HCT-15 = test system: HCT-15
HL-60 = test system: HL-60
HOP-62 = test system: HOP-62
IGROV-1 = test system: IGROV-1
K562 = test system: K562
KM12 = test system: KM12
MDA-MB-231 = test system: MDA-MB-231
MDA-N = test system: MDA-N
MOLT-4 = test system: MOLT-4
NCI-H460 = test system: NCI-H460
SF-268 = test system: SF-268
SK-OV-3 = test system: SK-OV-3
SW-620 = test system: SW-620
UO-31 = test system: UO-31

SMILES | GI50 (786-0) | GI50 (A549) | GI50 (ACHN) | GI50 (BT-549) | GI50 (CAKI-1) | GI50 (COLO 205) | GI50 (HCT-15) | GI50 (HL-60) | GI50 (HOP-62) | GI50 (IGROV-1) | GI50 (K562) | GI50 (KM12) | GI50 (MDA-MB-231) | GI50 (MDA-N) | GI50 (MOLT-4) | GI50 (NCI-H460) | GI50 (SF-268) | GI50 (SK-OV-3) | GI50 (SW-620) | GI50 (UO-31)
CN(C)c1ccc(Cc2cc3c(O)ccc(O)c3cc(Cc3ccc(N(C)C)cc3)c2=O)cc1 | 16 µM (inactive) | 30.5 µM (inactive) | 12.5 µM (inactive) | 13.7 µM (inactive) | 6.46 µM (inactive) | 16.1 µM (inactive) | 21.5 µM | 3.04 µM (inactive) | 45.7 µM (inactive) | 16.1 µM (inactive) | 2.96 µM (inactive) | 18.6 µM (inactive) | 20.1 µM (inactive) | 18.8 µM (inactive) | 2.92 µM (inactive) | 37.4 µM (inactive) | 29.6 µM (inactive) | > 100 µM (inactive) | 13.6 µM (inactive) | 13.1 µM (inactive)
Cc1ccc(CC(=O)Nc2ccc(NC(=O)CNC(=O)/C=C/c3ccc(-c4ccccc4)cc3)cc2C(=O)c2ccccc2)cc1 | 2.28 µM (inactive) | 2.03 µM (inactive) | 4.8 µM (inactive) | 10.9 µM (inactive) | 4.9 µM (inactive) | 6.93 µM (inactive) | 3.69 µM | 7.45 µM (inactive) | 2.55 µM (inactive) | 8.24 µM (inactive) | 3.33 µM (inactive) | 3.56 µM (inactive) | 2.62 µM (inactive) | 4.74 µM (inactive) | 3.5 µM (inactive) | 2.86 µM (inactive) | 2.45 µM (inactive) | 10.7 µM (inactive) | 4.75 µM (inactive) | 11.8 µM (inactive)
CCN(CC)CCNc1nc(N)c(C#N)c(C#N)c1C#N | > 10 µM (inactive) | > 10 µM (inactive) | > 10 µM (inactive) | > 10 µM (inactive) | > 10 µM (inactive) | > 10 µM (inactive) | > 10 µM | > 10 µM (inactive) | > 10 µM (inactive) | > 10 µM (inactive) | > 10 µM (inactive) | > 10 µM (inactive) | > 10 µM (inactive) | > 10 µM (inactive) | > 10 µM (inactive) | > 10 µM (inactive) | > 10 µM (inactive) | > 10 µM (inactive) | > 10 µM (inactive) | > 10 µM (inactive)
NC(=S)Nc1nc(=S)[nH]c2[nH]ccc12 | > 100 µM (inactive) | > 100 µM (inactive) | > 100 µM (inactive) | 93.8 µM (inactive) | > 100 µM (inactive) | 82.4 µM (inactive) | 41.7 µM | 19.1 µM (inactive) | > 100 µM (inactive) | 88.5 µM (inactive) | 31 µM (inactive) | 26.2 µM (inactive) | > 100 µM (inactive) | 98.2 µM (inactive) | 21.1 µM (inactive) | > 100 µM (inactive) | 20.2 µM (inactive) | > 100 µM (inactive) | > 100 µM (inactive) | 66.7 µM (inactive)
Cc1cc(/N=C/c2ccc(Cl)cc2)n(-c2ccccc2)n1 | 37.3 µM (inactive) | 45.3 µM (inactive) | 47.2 µM (inactive) | 31.8 µM (inactive) | 39 µM (inactive) | 23.9 µM (inactive) | 19 µM | 26 µM (inactive) | 36 µM (inactive) | 45.7 µM (inactive) | 12.9 µM (inactive) | 23.4 µM (inactive) | > 100 µM (inactive) | 32.2 µM (inactive) | 32.2 µM (inactive) | 43.1 µM (inactive) | 69.3 µM (inactive) | 67.9 µM (inactive) | 39.2 µM (inactive) | 59 µM (inactive)
CCOP(=O)(OCC)/C(F)=C/c1ccccc1 | > 100 µM (inactive) | > 100 µM (inactive) | > 100 µM (inactive) | > 100 µM (inactive) | > 100 µM (inactive) | > 100 µM (inactive) | > 100 µM | > 100 µM (inactive) | > 100 µM (inactive) | > 100 µM (inactive) | > 100 µM (inactive) | > 100 µM (inactive) | > 100 µM (inactive) | > 100 µM (inactive) | > 100 µM (inactive) | > 100 µM (inactive) | > 100 µM (inactive) | > 100 µM (inactive) | > 100 µM (inactive) | 95.9 µM (inactive)
O=C1OC(C2Cc3ccc4c(c3C2=O)CCCC4)c2ccccc21 (stereo not given) | 50.8 µM (inactive) | 35.9 µM (inactive) | 44.6 µM (inactive) | 54.8 µM (inactive) | 69.3 µM (inactive) | 46.8 µM (inactive) | 28.4 µM | 71.3 µM (inactive) | 74.1 µM (inactive) | 44.3 µM (inactive) | 21.8 µM (inactive) | 44 µM (inactive) | 36.2 µM (inactive) | 34.8 µM (inactive) | 16.8 µM (inactive) | 27.3 µM (inactive) | 49.2 µM (inactive) | 73.6 µM (inactive) | 29.7 µM (inactive) | 50 µM (inactive)
O=C(C1OC1c1cccc([N+](=O)[O-])c1)C12CC3CC(CC(C3)C1)C2 (stereo not given) | 2.69 µM (inactive) | 12.9 µM (inactive) | 9.59 µM (inactive) | 3.09 µM (inactive) | 8.83 µM (inactive) | 9.89 µM (inactive) | 4.3 µM | 2.43 µM (inactive) | 10.7 µM (inactive) | 6.53 µM (inactive) | 2.58 µM (inactive) | 3.78 µM (inactive) | 4.83 µM (inactive) | 3.19 µM (inactive) | 2.82 µM (inactive) | 4.06 µM (inactive) | 2.63 µM (inactive) | 16.9 µM (inactive) | 2.97 µM (inactive) | 8.26 µM (inactive)
CCSC1=CC(=O)c2nc3ccccc3c3ccnc1c23 | 3.04 µM (inactive) | 7.8 µM (inactive) | 3.65 µM (inactive) | 12.9 µM (inactive) | 3.82 µM (inactive) | 8.15 µM (inactive) | 2.31 µM | 2.06 µM (inactive) | 18.4 µM (inactive) | 2.72 µM (inactive) | 1.35 µM (inactive) | 3.9 µM (inactive) | 4.14 µM (inactive) | 1.95 µM (inactive) | 2.64 µM (inactive) | 6.24 µM (inactive) | 2.49 µM (inactive) | 49 µM (inactive) | 2.68 µM (inactive) | 5.22 µM (inactive)
CCOC(=O)NC(Nc1ccc([N+](=O)[O-])cc1)(C(F)(F)F)C(F)(F)F | > 100 µM (inactive) | 45 µM (inactive) | > 100 µM (inactive) | 96.2 µM (inactive) | 82.4 µM (inactive) | > 100 µM (inactive) | 70.6 µM | 54.1 µM (inactive) | > 100 µM (inactive) | 70.5 µM (inactive) | 53.8 µM (inactive) | 82.2 µM (inactive) | 94.2 µM (inactive) | 22 µM (inactive) | 54.2 µM (inactive) | 40.9 µM (inactive) | > 100 µM (inactive) | 56.5 µM (inactive) | > 100 µM (inactive) | 27 µM (inactive)
CC(=O)NC1C(OCc2ccccc2)OC(CO)C(O)C1OCC(=O)NC(C)C(=O)NC(CCC(=O)Nc1ccc2c(c1)CN1C(=O)c3ccccc3C1=N2)C(N)=O (stereo not given) | > 100 µM (inactive) | > 100 µM (inactive) | > 100 µM (inactive) | > 100 µM (inactive) | > 100 µM (inactive) | > 100 µM (inactive) | > 100 µM | > 100 µM (inactive) | > 100 µM (inactive) | > 100 µM (inactive) | > 100 µM (inactive) | > 100 µM (inactive) | > 100 µM (inactive) | > 100 µM (inactive) | 89.1 µM (inactive) | > 100 µM (inactive) | > 100 µM (inactive) | > 100 µM (inactive) | > 100 µM (inactive) | > 100 µM (inactive)
Oc1cc(Br)cc2cc(Cl)cnc12 | 8.71 µM (inactive) | 2.06 µM (inactive) | 1.95 µM (inactive) | 2.44 µM (inactive) | 7.55 µM (inactive) | 21.4 µM (inactive) | 0.665 µM | 0.463 µM (active) | 4.84 µM (inactive) | 1.26 µM (inactive) | 0.627 µM (active) | 4.06 µM (inactive) | 20.8 µM (inactive) | 3.45 µM (inactive) | 1.55 µM (inactive) | 1.09 µM (active) | 0.893 µM (active) | 30.2 µM (inactive) | 2.83 µM (inactive) | 1.48 µM (inactive)
C=C1C(=O)O[C@@H]2C[C@@]3(C)CCC[C@H](C)C3=C[C@H]12 [HELENINE] | 3.53 µM (inactive) | 16.1 µM (inactive) | 10 µM (inactive) | 3.62 µM (inactive) | 5.33 µM (inactive) | 1.73 µM (inactive) | 4.3 µM | 1.98 µM (inactive) | 12.3 µM (inactive) | 16.1 µM (inactive) | 3.02 µM (inactive) | 12 µM (inactive) | 14.2 µM (inactive) | 4.66 µM (inactive) | 1.62 µM (inactive) | 17 µM (inactive) | 12.6 µM (inactive) | 22 µM (inactive) | 3.83 µM (inactive) | 4.95 µM (inactive)
